For data set [1], the target named is T1, GPC3 (Homo sapiens, UniProt P51654).
T1 construct: purchased Novoprotein, China
Put plainly: Binding assay by surface plasmon resonance (SPR). As to conditions: GPC3 protein immobilized on 3D Dextran chip. The protocol:
Binding Assay. The binding affinity of the GP2076 or GP2633 peptide for GPC3 was determined using surface plasmon resonance (SPR) measurements (PlexArray HT A100, Plexera, USA). In brief, after the GPC3 protein (Novoprotein, China) was immobilized on a 3D Dextran chip, the GP2076 or GP2633 peptide flowed at increasing concentrations (400 nM and 800 nM). The results were analyzed by PlexeraDE software.
For orientation: SPR reads the build-up and loss of mass on a sensor chip optically.

The nature of data set [2]: In vitro biocompatibility (cell counting Kit-8 cell viability). The class given is cell-based. As to conditions: human, HepG2 cells, all concentrations 120 to 840 μg/ml. The protocol:
In Vitro Biocompatibility. A colorimetric assay was utilized to determine cell viability after treating GPC3 positive HepG2 cells with the GP2076 or GP2633 peptide. The assay was carried out according to the instruction of the manufacturer. In brief, HepG2 cells were seeded at a density of 1×10^4 cells/well in a 96-well plate. After the incubation of the GP2076 or GP2633 peptide at various concentrations (0, 120, 240, 360, 480, 600, 720, and 840 μg/ml) with HepG2 cells for 24 h, the HepG2 cells were examined using the cell counting Kit-8 (KeyGen Biotech, Nanjing, China). The absorbance at 450 nm of all the wells in the 96-well microplate was recorded on a microplate reader (BIOTEK ELX800, USA). The experiment was performed in quadruplicate.
Background: Tetrazolium assays rely on reduction of a dye to a coloured formazan, in cell work by metabolically active cells.

In US20210347709A1, “RADIOFLUORINATED GPC3-BINDING PEPTIDES FOR PET IMAGING OF HEPATOCELLULAR CARCINOMA” (University of Southern California, priority 2020, published 2021) one finds Kd and viability data, which are given here for two compounds.

T1 sequence (P51654 25-554): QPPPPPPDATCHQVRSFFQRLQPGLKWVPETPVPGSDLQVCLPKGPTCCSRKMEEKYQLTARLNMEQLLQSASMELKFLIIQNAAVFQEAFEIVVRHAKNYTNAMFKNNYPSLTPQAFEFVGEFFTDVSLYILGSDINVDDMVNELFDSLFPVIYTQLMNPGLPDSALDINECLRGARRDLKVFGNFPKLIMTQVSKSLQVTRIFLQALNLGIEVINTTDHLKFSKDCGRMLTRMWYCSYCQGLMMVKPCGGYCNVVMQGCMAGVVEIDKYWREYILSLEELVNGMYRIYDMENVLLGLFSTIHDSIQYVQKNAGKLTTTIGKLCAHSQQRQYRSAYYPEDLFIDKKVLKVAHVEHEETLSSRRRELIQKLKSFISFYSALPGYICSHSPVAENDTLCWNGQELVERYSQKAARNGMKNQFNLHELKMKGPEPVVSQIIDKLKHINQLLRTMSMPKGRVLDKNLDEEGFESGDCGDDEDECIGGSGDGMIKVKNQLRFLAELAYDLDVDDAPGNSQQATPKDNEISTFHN

In the case of `CC(C)C[C@H](NC(=O)[C@H](CCCNC(=N)N)NC(=S)Nc1ccc(CC2CN(CC(=O)O)CCN(CC(=O)O)CCN2CC(=O)O)cc1)C(=O)N[C@@H](CC(N)=O)C(=O)N[C@H](C(=O)NCC(=O)NCC(=O)N[C@H](C(=O)N[C@@H](Cc1ccc(O)cc1)C(=O)N[C@@H](Cc1ccccc1)C(=O)N[C@@H](CC(C)C)C(=O)N[C@H](C(=O)N[C@H](C(=O)N[C@@H](CCCNC(=N)N)C(=O)N[C@@H](CCC(N)=O)C(=O)O)[C@@H](C)O)[C@@H](C)O)[C@@H](C)O)C(C)C` (stereo partly shown) [GP2076], in data set [1], the dissociation constant (Kd) (in general, the concentration at which binding is half-saturated) amounted to 101 nM. Moreover, the viability (as a rule, a read-out of living cells in per cent, often relative to untreated cells) at 24 h in data set [2] is over 90%.
With `CC(C)C[C@H](NC(=O)[C@H](CCCNC(=N)N)NC(=O)[C@H](CC(N)=O)NC(=O)[C@H](CC(=O)O)NC(=O)[C@H](CCCNC(=N)N)NC(=O)CNC(=O)CNC(=O)CNC(=S)Nc1ccc(CC2CN(CC(=O)O)CCN(CC(=O)O)CCN2CC(=O)O)cc1)C(=O)N[C@@H](CC(N)=O)C(=O)N[C@H](C(=O)NCC(=O)NCC(=O)N[C@H](C(=O)N[C@@H](Cc1ccc(O)cc1)C(=O)N[C@@H](Cc1ccccc1)C(=O)N[C@@H](CC(C)C)C(=O)N[C@H](C(=O)N[C@H](C(=O)N[C@@H](CCCNC(=N)N)C(=O)N[C@@H](CCC(N)=O)C(=O)O)[C@@H](C)O)[C@@H](C)O)[C@@H](C)O)C(C)C` (stereo partly shown) [GP2633], in data set [1], the affinity, expressed as Kd, was 63.3 nM. The viability at 24 h in data set [2] was over 90%.
